This is an account of results in publication PMC11019550, “Potent Inhibition of E. coli DXP Synthase by a gem-Diaryl Bisubstrate Analog” (ACS Infectious Diseases, 2024).

SMILES strings stand for the structures.

One assay concerns the target T1, EcDXPS (Escherichia coli, UniProt P77488).
T1 construct: made in house
Briefly: DXPS-IspC coupled assay, apparent Ki on wildtype EcDXPS. It counts as biochemical. Conditions: EcDXPS 100 nM, 10 min preincubation; Morrison equation fit; read-out: Ki^app. As to the method:
To determine inhibitor potency, we used the DXPS-DXP reductoisomerae (DXPS-IspC) coupled assay to measure the activity of recombinant purified EcDXPS[24],[25],[31],[44],[50] in the presence of inhibitors. Reactions were initiated by the addition of substrates following a short preincubation of the inhibitor with enzymes, and initial velocities were determined by monitoring reduced nicotinamide adenine dinucleotide phosphate (NADPH) absorbance at 340 nm. Apparent Ki values were determined by fitting initial velocity data to the Morrison equation,[64],[65] which accounts for the tight-binding nature (Ki^app/[E]total < 10)[66] of inhibitors included in this study and allows for rigorous comparison of inhibitor potencies. […] Inhibitor activities were rationalized based on the predictions made from molecular docking of the corresponding PLThDP adducts into the DXPS active site.
All compounds in this study were evaluated as DXPS inhibitors using the DXPS-IspC coupled assay as previously reported.[24] […] The DXPS reaction was initiated by the addition of substrates (50 μM pyruvate and 500 μM D-GAP). The initial rate of depletion of NADPH was monitored at 340 nm and was used to calculate the initial rate of DXP formation in the presence or absence of inhibitor. Initial rates of DXP formation were plotted as a function of [inhibitor], and Ki^app was determined by fitting the data to the Morrison equation (eq 1)[64],[65] in GraphPad Prism. This approach was deemed appropriate as the concentration of free inhibitor cannot be assumed to remain constant for most of these analogs in which Ki^app values approach the concentration of DXPS.[88],[89] Error is reported as standard deviation from three replicates. Active enzyme concentration ([E]T) was determined following Copeland’s method using 8 (Figure S2B).[88]
The coupled assay was initiated by adding 20 μL of a 10× substrate stock to the preincubated E + I mixture to give a final volume of 200 μL. The final concentration of D-GAP was held constant at 500 μM, and [pyruvate] was added to final concentrations between 0 and 250 μM. The initial rate of NADPH depletion in the IspC-coupled reaction was monitored at 340 nm and was used to calculate the initial rate of DXP formation in the presence or absence of inhibitor. Initial rates were plotted as a function of [pyruvate]. […] Model discrimination analysis employing the Akaike information criterion was performed as well as Lineweaver–Burk analysis to determine the mixed model as the best fit. In all cases, error bars represent the standard deviation from three replicates.

In assay [1] the target is T2, R99A EcDXPS (Escherichia coli, UniProt P77488, R99A).
T2 construct: made in house
Briefly: IC50 determination for 8 on R99A EcDXPS variant. It is filed as biochemical. Conditions: 400 nM DXPS, 2 × Km pyruvate, 10 × Km D-GAP. Here is the method:
(§1) EcDXPS and IspC were preincubated with inhibitor for 10 min at 25 °C in assay reaction buffer (100 mM HEPES pH 8, 2 mM MgCl2, 5 mM NaCl, 1 mM ThDP, and 200 μM NADPH). Enzyme concentrations for variants were as follows: 200 nM DXPS (wildtype EcDXPS) and 4 μM IspC; 400 nM DXPS (R99A and R478A EcDXPS) and 6 μM IspC. The reaction was initiated by the addition of substrates at final concentrations of 2 × Km pyruvate and 10 × KmD-GAP. NADPH consumption was monitored at 340 nm for 10 min at 25 °C. The initial rate of NADPH consumption was used to determine the initial rate of DXP formation catalyzed by DXPS. Experiments were performed in triplicate and error bars represented standard error.

Assay [2] has as its target T3, R478A EcDXPS (Escherichia coli, UniProt P77488, R478A).
T3 construct: made in house
Briefly: IC50 determination for 8 on R478A EcDXPS variant. It counts as biochemical. Conditions: 400 nM DXPS, 2 × Km pyruvate, 10 × Km D-GAP. Here is the method: as §1

Assay [3] concerns the target T2, R99A EcDXPS. Briefly: Circular dichroism titration (PLThDP formation, apparent KD) on R99A EcDXPS. It is filed as binding. As to the method: (§2) CD titrations of 8 and 10 onto WT, R99A, and R478A EcDXPS variants were conducted at 25 °C under aerobic conditions in 1.5 mL solutions containing 30 μM EcDXPS in 50 mM HEPES pH 8, 100 mM NaCl, 1 mM MgCl2, and 0.2 mM ThDP. Scans were obtained from 280 to 400 nm with a 0.5 s averaging time and 1 nm step following a titration of inhibitor (8: 0.25–30 μM on WT, 0.5–30 μM on R99A and R478A; 10 2.5–30 μM on WT, R99A, and R478A), with a 5 min preincubation of inhibitor with DXPS prior to scanning. […] The CD signals at 294 nm determined from the difference spectra obtained by subtracting the signal of E-ThDP at 294 nm were plotted as a function of [inhibitor] and fit to (1) the quadratic equation described in eq 2 (8 on WT DXPS), where E is the concentration of DXPS taking into account stoichiometric binding and CDmax is the maximal CD signal, or (2) a one-site specific binding curve (all other experiments) using GraphPad Prism Version 9 to calculate an apparent KD. Experiments were conducted in triplicate and the standard error was calculated. [drawing 2] 2
(§3) At the conclusion of the titration described above, the CD signal at 313 nm (previously characterized for LThDP) was recorded. Pyruvate (1 mM) was then added to the mixture, and a CD scan of the resulting solution was conducted as described above, to detect shifts in the CD spectrum that may correlate to LThDP formation. Experiments were conducted in triplicate.

Assay [4] concerns the target T3, R478A EcDXPS. Briefly: Circular dichroism titration (PLThDP formation, apparent KD) on R478A EcDXPS. It counts as binding. As to the method: as §2, §3
The target in a further assay is T4, WT EcDXPS (Escherichia coli, UniProt P77488).
T4 construct: made in house
The experiment in a line: Time-dependent inhibition, reaction progress curves on WT EcDXPS. It counts as biochemical. As to conditions: 8 at 400 or 800 nM, 10 at 1 or 100 μM. Here is the method:
To determine if 8 is also a slow-onset inhibitor of DXPS, reaction progress was monitored upon simultaneous addition of substrates (pyruvate and D-GAP) in the presence or absence of inhibitor. In the absence of inhibitor, the reaction progress curve is linear. […] To assess the importance of the carboxyl group of 8, we evaluated descarboxy analog 10 in the same manner.
EcDXPS (100 nM) and IspC (2 μM) were preincubated in enzyme reaction buffer (100 mM HEPES pH 8, 2 mM MgCl2, 5 mM NaCl, 1 mM ThDP, and 200 μM NADPH) with 250 μM D-GAP for 10 min at 25 °C. The reaction was initiated by the addition of pyruvate (1 mM) and inhibitor (400 nM and 800 nM 8; 1 μM and 100 μM 10). The reaction mixture was incubated at 25 °C, and the absorbance of NADPH at 340 nm was monitored. The change in the absorbance of NADPH over time was used to calculate [DXP] (μM) produced over time. Experiments were performed in triplicate.

Turning to `CC(=O)P(=O)(O)OCCc1cn(C(Cc2ccccc2)(Cc2ccccc2)C(=O)O)nn1` [Compound 8], the Ki on EcDXPS is 0.0029 ± 0.0005 µM. The IC50 against R99A EcDXPS [1] was found to be 3.007 ± 0.015 µM; against R478A EcDXPS [2], 1.01 ± 0.381 µM. In addition, the Kd on R99A EcDXPS [3] was 19 ± 3 µM; on R478A EcDXPS [4], 11 ± 4 µM. The “change in PLThDP CD signal upon addition of pyruvate” value at R99A EcDXPS [3] (R99A-PLThDP complex) and at R478A EcDXPS [4] (R478A-PLThDP complex) was “shift in the CD profile toward the characteristic LThDP signal” each time. The “time dependence of inhibition (progress curve for DXP formation)” value at WT EcDXPS is recorded as “time dependence of inhibition”.
